The target in test [1] is GDP-bound KRAS wild-type protein (Homo sapiens, UniProt P01116). The test can be described thus: Binding to KRAS by surface plasmon resonance (SPR), Single Cycle Kinetics. The conditions noted are these: GDP-bound KRAS wild-type protein, read-out: KRAS KD. For orientation: In SPR one partner is held on a chip, and binding of the other changes the refractive index at the surface.

For test [2], the target named is GDP-bound NRAS wild-type protein (Homo sapiens, UniProt P01111). The test can be described thus: Binding to NRAS by surface plasmon resonance (SPR), Single Cycle Kinetics. The conditions noted are these: SPR, GDP-bound NRAS wild-type protein vs GDP-bound KRAS wild-type protein.
Chain of GDP-bound NRAS wild-type protein (P01111 whole entry): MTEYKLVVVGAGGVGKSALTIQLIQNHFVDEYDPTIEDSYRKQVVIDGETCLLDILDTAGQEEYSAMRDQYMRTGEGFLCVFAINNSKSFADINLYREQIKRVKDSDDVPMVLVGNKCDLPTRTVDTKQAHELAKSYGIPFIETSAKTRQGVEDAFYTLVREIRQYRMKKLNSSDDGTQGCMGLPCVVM
Test [3] deals with GDP-bound HRAS wild-type protein (Homo sapiens, UniProt P01112). In words: Binding to HRAS by surface plasmon resonance (SPR), Single Cycle Kinetics. Conditions: SPR, GDP-bound HRAS wild-type protein vs GDP-bound KRAS wild-type protein.
Chain of GDP-bound HRAS wild-type protein (P01112 whole entry): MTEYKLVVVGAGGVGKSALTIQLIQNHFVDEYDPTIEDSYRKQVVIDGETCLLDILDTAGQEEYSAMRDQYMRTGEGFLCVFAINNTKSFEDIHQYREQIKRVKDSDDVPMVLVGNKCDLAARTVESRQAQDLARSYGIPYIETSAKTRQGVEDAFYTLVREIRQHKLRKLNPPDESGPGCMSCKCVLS
The mark [4] stands for this setting: SPR, Single Cycle Kinetics, 1:1 binding model.
Where [5] appears, read: SPR Single Cycle Kinetics, 1:1 binding model.

9 compounds from patent US20240158446A1, “CYCLIC COMPOUND HAVING SELECTIVE INHIBITORY ACTION ON KRAS OVER HRAS AND NRAS” (CHUGAI SEIYAKU KABUSHIKI KAISHA, priority 2021, published 2024) can be followed below.

Read-outs that look alike come from different tables or passages of the source. Where a SMILES comes first, the peptide text is derived from it. Bridges are numbered along the chain shown (N, C = ends). [ ]: non-standard residue; d: D form. The star is where a group is joined. hPhe(3-Cl-4-CF3) = N[C@@H](CCc1ccc(C(F)(F)F)c(Cl)c1)C(=O)O; NPrPhe(4-CF3) = CCCN[C@@H](Cc1ccc(C(F)(F)F)cc1)C(=O)O; NPrPhe(4-Me) = CCCN[C@@H](Cc1ccc(C)cc1)C(=O)O; NMeGly(cPent) = CN[C@H](C(=O)O)C1CCCC1; NMeD = CN[C@@H](CC(=O)O)C(=O)O; NMeL = CN[C@@H](CC(C)C)C(=O)O; Ac6c = NC1(C(=O)O)CCCCC1; Morpholide = C1CN(*)CCO1; NMeA = CN[C@@H](C)C(=O)O; Ac5c = NC1(C(=O)O)CCCC1; Aze = O=C(O)[C@@H]1CCN1; Ac4c = NC1(C(=O)O)CCC1; X24 = CC1(C)CCN(*)C1; NEtG = CCNCC(=O)O; Sar = CNCC(=O)O

Chain of GDP-bound KRAS wild-type protein (P01116 whole entry): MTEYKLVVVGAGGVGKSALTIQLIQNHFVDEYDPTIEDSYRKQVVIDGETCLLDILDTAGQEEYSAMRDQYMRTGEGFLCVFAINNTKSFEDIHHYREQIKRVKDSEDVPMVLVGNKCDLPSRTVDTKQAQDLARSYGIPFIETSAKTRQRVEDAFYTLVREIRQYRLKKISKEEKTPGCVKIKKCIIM

For orientation: Kd means the equilibrium constant for the complex coming apart. For the compound `CCO[C@@H]1C[C@H]2C(=O)NC3(CCC3)C(=O)N(C)[C@@H](C(CC)CC)C(=O)N(C)C(C(C)C)CC(=O)N(C)[C@@H](CC)C(=O)N[C@@H]([C@@H](C)CC)C(=O)N(C)CC(=O)N(C)[C@H]3C/C=C\CCN(C3=O)[C@@H](Cc3ccc(C(F)(F)F)cc3)C(=O)N(C)CC(=O)N[C@@H](CCc3cc(F)c(C(F)(F)F)c(F)c3)C(=O)N2C1` (stereo partly drawn) [PP1589], in test [1] (setting [4]), the dissociation constant Kd was found to be 1.8 nM. Moreover, the “NRAS/KRAS (ratio of KD value for NRAS to KD value for KRAS)” value in test [2] (KD ratio class) is “A (a compound having 10 or more and less than 20 is denoted as A)”. For the same compound, in test [3] (KD ratio class), the “HRAS/KRAS (ratio of KD value for HRAS to KD value for KRAS)” value is “A (a compound having 10 or more and less than 20 is denoted as A)”.

With `CCO[C@@H]1C[C@H]2C(=O)NC3(CCC3)C(=O)N(C)[C@@H](C3CCCCC3)C(=O)N(C)[C@H](C(=O)N(C)C)CC(=O)N(C)[C@@H](CC)C(=O)N[C@@H]([C@@H](C)CC)C(=O)N(C)CC(=O)N(C)[C@H]3C/C=C\CCN(C3=O)[C@@H](Cc3ccc(C(F)(F)F)cc3)C(=O)N(C)CC(=O)N[C@@H](CCc3cc(F)c(C(F)(F)F)c(F)c3)C(=O)N2C1` [PP1086, (2S,8S,12R,14S,20S,23S,27S,30S,36S,38Z)-20-cyclohexyl-8-[2-[3,5-difluoro-4-(trifluoromethyl)phenyl]ethyl]-12-ethoxy-27-ethyl-N,N,4,19,22,26,32,35-octamethyl-30-[(1S)-1-methylpropyl]-3,6,9,15,18,21,25,28,31,34,42-undecaoxo-2-[[4-(trifluoromethyl)phenyl]methyl]spiro[1,4,7,10,16,19,22,26,29,32,35-undecazatricyclo[34.5.1.0^10,14]dotetracont-38-ene-17,1′-cyclobutane]-23-carboxamide], in test [1] (SPR, Single Cycle Kinetics), the equilibrium dissociation constant (Kd) was found to be 0.13 nM. In addition, the “NRAS/KRAS (ratio of KD value for NRAS to KD value for KRAS)” value in test [2] is on record as “AA (a compound having 20 or more is denoted as AA)”. Also, the “HRAS/KRAS (ratio of KD value for HRAS to KD value for KRAS)” value in test [3] is “A (a compound having 10 or more and less than 20 is denoted as A)”.

Consider `CCCN1C(=O)CN(CC)C(=O)CN(C)C(=O)[C@H]([C@@H](C)CC)NC(=O)[C@H](CC(C)C)N(C)C(=O)C[C@@H](C(=O)N2CCOCC2)N(C)C(=O)[C@H](C2CCCC2)N(C)C(=O)C2(CCCC2)NC(=O)[C@@H]2CCCN2C(=O)[C@H](CCc2ccc(C(F)(F)F)c(Cl)c2)NC(=O)CN(CC)C(=O)[C@@H]1Cc1ccc(C)cc1` [PP0069] ([NMeL]I[Sar][NEtG][NPrPhe(4-Me)][NEtG][hPhe(3-Cl-4-CF3)]P[Ac5c][NMeGly(cPent)][NMeD]-Morpholide; lactam N-11), for which the Kd in test [1] (setting [5]) came out at 6.9 nM. Besides, the “NRAS/KRAS (ratio of KD value for NRAS to KD value for KRAS)” value in test [2] was “C (A compound having a KD ratio of 0.1 or more and less than 3 is denoted as C)”. Further, in test [3], the “HRAS/KRAS (ratio of KD value for HRAS to KD value for KRAS)” value is “C (A compound having a KD ratio of 0.1 or more and less than 3 is denoted as C)”.

For `CCO[C@@H]1C[C@H]2C(=O)NC3(CCC3)C(=O)N(C)[C@@H](C3CCCC3)C(=O)N(C)[C@H](C(=O)N3CCOCC3)CC(=O)N(C)[C@@H](CC(C)C)C(=O)N[C@@H]([C@@H](C)CC)C(=O)N(C)CC(=O)N(C)[C@H]3CC/C=C(/C)CN(C3=O)[C@@H](Cc3ccc(C(F)(F)F)cc3)C(=O)N(C)CC(=O)N[C@@H](CCc3cc(F)c(C(F)(F)F)c(F)c3)C(=O)N2C1` [PP1333], the Kd in test [1] (setting [4]) was 58 nM. In test [2] (KD ratio class), the “NRAS/KRAS (ratio of KD value for NRAS to KD value for KRAS)” value is “C (A compound having a KD ratio of 0.1 or more and less than 3 is denoted as C)”. Besides, the “HRAS/KRAS (ratio of KD value for HRAS to KD value for KRAS)” value in test [3] (KD ratio class) was “B (a compound having 3 or more and less than 10 is denoted as B)”.

As to `CC[C@H](C)[C@@H]1NC(=O)[C@H](CC(C)C)N(C)C(=O)C[C@@H](C(=O)N2CCOCC2)N(C)C(=O)[C@H](C2CCCC2)N(C)C(=O)C2(CCCC2)NC(=O)[C@@H]2CC(=O)CN2C(=O)[C@H](CCc2cc(F)c(C(F)(F)F)c(F)c2)NC(=O)CN(C)C(=O)[C@H](Cc2ccc(C(F)(F)F)cc2)N2CCCC[C@@H](C2=O)N(C)C(=O)CN(C)C1=O` [PP0555], in test [1] (setting [5]), the Kd was 0.066 nM. For the same compound, in test [2], the “NRAS/KRAS (ratio of KD value with respect to NRAS to KD value with respect to KRAS)” value was “B (a compound having 3 or more and less than 10 is denoted as B)”. The “HRAS/KRAS (ratio of KD value with respect to HRAS to KD value with respect to KRAS)” value in test [3] was “B (a compound having 3 or more and less than 10 is denoted as B)”.

Turning to `CCCN(C)C(=O)[C@@H]1CC(=O)N(C)[C@@H](C2CCC2)C(=O)N[C@@H]([C@@H](C)CC)C(=O)N(C)CC(=O)N(C)[C@H]2C/C=C\CCN(C2=O)[C@@H](Cc2ccc(C(F)(F)F)cc2)C(=O)N(C)CC(=O)N[C@@H](CCc2ccc(C(F)(F)F)c(OC)c2)C(=O)N2C[C@@H](C)C[C@H]2C(=O)NC2(CCC2)C(=O)N(C)[C@@H](C2CCCC2)C(=O)N1C` [PP2072], in test [1] (SPR, Single Cycle Kinetics), the Kd amounted to 0.12 nM. In addition, the “NRAS/KRAS (ratio of KD value for NRAS to KD value for KRAS)” value in test [2] is “A (a compound having 10 or more and less than 20 is denoted as A)”. In addition, the “HRAS/KRAS (ratio of KD value for HRAS to KD value for KRAS)” value in test [3] was “A (a compound having 10 or more and less than 20 is denoted as A)”.

For the compound `CCCN1C(=O)CN(C)C(=O)CN(C)C(=O)[C@H]([C@@H](C)CC)NC(=O)[C@H](CC(C)C)N(C)C(=O)C[C@@H](C(=O)N2CCOCC2)N(C)C(=O)[C@H](C2CCCC2)N(C)C(=O)C2(CCCCC2)NC(=O)[C@@H]2CCCN2C(=O)[C@H](CCc2ccc(C(F)(F)F)c(Cl)c2)NC(=O)CN(C)C(=O)[C@@H]1Cc1ccc(C(F)(F)F)cc1` [PP0231] ([NMeL]I[Sar][Sar][NPrPhe(4-CF3)][Sar][hPhe(3-Cl-4-CF3)]P[Ac6c][NMeGly(cPent)][NMeD]-Morpholide; lactam N-11), in test [1] (setting [5]), the dissociation constant Kd came to 0.55 nM. Also, the “NRAS/KRAS (ratio of KD value for NRAS to KD value for KRAS)” value in test [2] is “B (a compound having 3 or more and less than 10 is denoted as B)”. Further, the “HRAS/KRAS (ratio of KD value for HRAS to KD value for KRAS)” value in test [3] was “C (A compound having a KD ratio of 0.1 or more and less than 3 is denoted as C)”.

For the compound `CCCN1C(=O)[C@@H]2CCN2C(=O)[C@H](C)N(C)C(=O)[C@H]([C@@H](C)CC)NC(=O)[C@H](CC(C)C)N(C)C(=O)C[C@@H](C(=O)N(C)C)N(C)C(=O)[C@H](C2CCCC2)N(C)C(=O)C2(CCC2)NC(=O)[C@@H]2CCCN2C(=O)[C@H](CCc2ccc(C(F)(F)F)c(Cl)c2)NC(=O)CN(C)C(=O)[C@@H]1Cc1ccc(C(F)(F)F)cc1` [PP0435] ([NMeL]I[NMeA][Aze][NPrPhe(4-CF3)][Sar][hPhe(3-Cl-4-CF3)]P[Ac4c][NMeGly(cPent)][NMeD]-NMe2; lactam N-11), in test [1] (setting [5]), the Kd stood at 0.047 nM. The “NRAS/KRAS (ratio of KD value with respect to NRAS to KD value with respect to KRAS)” value in test [2] is “C (A compound having a KD ratio of 0.1 or more and less than 3 is denoted as C)”. For the same compound, the “HRAS/KRAS (ratio of KD value with respect to HRAS to KD value with respect to KRAS)” value in test [3] is “C (A compound having a KD ratio of 0.1 or more and less than 3 is denoted as C)”.

Consider `CCCN1C(=O)CN(C)C(=O)CN(C)C(=O)[C@H]([C@@H](C)CC)NC(=O)[C@H](CC(C)C)N(C)C(=O)C[C@@H](C(=O)N2CCC(C)(C)C2)N(C)C(=O)[C@H](C2CCCC2)N(C)C(=O)C2(CCCC2)NC(=O)[C@@H]2CCCN2C(=O)[C@H](CCc2ccc(C(F)(F)F)c(Cl)c2)NC(=O)CN(C)C(=O)[C@@H]1Cc1ccc(C(F)(F)F)cc1` [PP0177] ([NMeL]I[Sar][Sar][NPrPhe(4-CF3)][Sar][hPhe(3-Cl-4-CF3)]P[Ac5c][NMeGly(cPent)][NMeD]-X24; lactam N-11), for which the Kd in test [1] (setting [5]) is 0.55 nM. Also, in test [2], the “NRAS/KRAS (ratio of KD value for NRAS to KD value for KRAS)” value was “B (a compound having 3 or more and less than 10 is denoted as B)”. Moreover, in test [3], the “HRAS/KRAS (ratio of KD value for HRAS to KD value for KRAS)” value is “C (A compound having a KD ratio of 0.1 or more and less than 3 is denoted as C)”.
